Laboratory results taken from patent US20260212953A1, “An Integrative Framework to Identify Therapeutic Molecules for Treating Preterm Birth” (The Regents of the University of California, priority 2023, published 2026).
Entries after “also recorded” stand apart in the source; their conditions may differ.

Assays:
[1] = system: primary human uterine smooth muscle cells (HUtSMC); assay: Collagen gel contraction assay; type: cell-based; conditions: for effect on HUtSMC contraction, contractile state stimulated by oxytocin: 100 nM oxytocin, OXY+DMSO as control; for reduction of oxytocin-induced myometrial contractility: on average over the four named pre-clinical drugs; for effect on HUtSMC contraction, quiescent state: PBS+DMSO as control
Text: We performed experiments to determine the functional roles of the small molecules in regulating labor timing. Because labor onset is hallmarked by muscle contraction in the uterus, we asked whether these small molecules could alter smooth muscle contraction in the uterus. We performed collagen gel contraction assays on primary human uterine smooth muscle cells (HUtSMC) (Ying et al., 2015) to examine the modes of action of the top 9 candidate drugs from our prediction (FIG. 5D). For each drug, we tested its effect on modulating HUtSMC contractility in stimulated (by oxytocin to mimic labor-like phenotypes) and quiescent states by treating cells with oxytocin and vehicle, respectively. In either condition, we determined the pharmacological effects of our identified compounds on cellular contraction (each with at least 8 replicates).
Primary Human Uterine Smooth Muscle Cells (HUISMC) were purchased from PromoCells (Cat #C-12575, Fisher Scientific, MA). Collagen gel contraction assays were performed following (Kita et al., 2008; Ying et al., 2015) with modifications. Briefly, 150 ul of collagen (Cat #5074, SigmaAldrich) was added to each well in a 48-well plate. 80,000 HUtSMC suspension in 300 ul Smooth Muscle Cell Growth Basal Medium (Lonza #CC-3181) were seeded to each well after collagen polymerization for an hour. The cells were then treated with either testing compounds or DMSO in the presence of 100 nM oxytocin or PBS control. We carefully detached the collagen from the wells by tips after 1 hour incubation at 37° C., and fixed the cells with 4% paraformaldehyde in PBS for 30 minutes after 18 hours to ensure the equivalent culture durations for all groups before imaging. We captured bright-field images with microscope systems (AmScope, Irvine, CA), and measured the gel diameters in the captured images by ImageJ where the fold changes to no cell control were taken for statistical analysis. At least three biological replicates were performed for each compound, and technically triplicates were included in each biological replicate. Information about small molecules in the study could be found in Table 4.

[2] = system: primary myometrial cell cultures; assay: RNA-Seq of primary myometrial cell cultures treated with FSK or IL-1B (Stanfield et al., 2019a); type: cell-based, human; conditions: published RNA-Seq data re-examined; P=0.68
Text: Performing functional enrichment analysis, we observed that the 69 Group I genes were highly enriched for functions associated with the regulation of muscle contraction (FDR=8.10e-4), more specifically with relaxation of muscle (FDR=2.71e-3, FIG. 3H). This explained their elevated expression prior to labor as well as their down-regulation upon delivery to promote muscle contractility.
Note that inflammatory factors are known to promote muscle contractility during labor (Khanjani et al., 2011; Mendelson et al., 2019), explaining the down-regulation of Group II genes before labor and their activation during labor. We examined primary myometrial cell cultures treated with IL-1B to mimic tissue-level inflammation at the labor onset (Stanfield et al., 2019a). […] In fact, Group-II genes included a key inflammatory activators AP-1 (with its subunits JUN and FOS), which play a central role in regulating smooth muscle contractility proteins at labor onset (Mendelson et al., 2019).
We downloaded normalized FPKM gene expression matrix of RNA-seq data (GSE134896 and GSE163773) (Ackerman et al., 2021; Stanfield et al., 2019a) from GEO for primary myometrial cell cultures following treatment with Forskolin and Interleukin-1B, and for primary myometrium samples harvested from 31 women at labor. […]

preterm labor = conditions: chronic treatment; cited from earlier work
[3] = system: smooth muscle cells in other organs; conditions: literature curation; cited from earlier work
HUtSMCs = assay: Cell viability of HUtSMCs treated with different concentrations of RKI-1447; type: cell-based, human
Text: These experimental data provided quantitative guidance on its potential clinical deployment. […] As a potent inhibitor of the Rho-kinases ROCKI/II, RKI-1447 has been mainly investigated for therapeutic effects on cancer (Dyberg et al., 2019; Li et al., 2020; Patel et al., 2012), glaucoma (Cush et al., 1995), and nonalcoholic fatty liver disease (Wang and Jiang, 2020), with less focus on putative effects on modulating uterine contractility. […] These observations provided mechanistic basis for our drug discovery and experimental observations (FIGS. 5E and 5F).

uterine contractility = conditions: in vivo; cited from earlier work
preterm birth = conditions: daily low-dose; women of their first pregnancies; cited from earlier work
recurrent preterm labor = assay: Weekly 17-OHPC injections in women with previous spontaneous preterm labor (longitudinal cohort); type: in vivo, human; conditions: number among 48 study participants; 250 mg weekly i.m., 16 to 36 weeks of gestation
Experimental: We performed a longitudinal patient recruitment in Alabama. The study involved 48 study participants who had previous history of spontaneous preterm labor (Supplementary Table 5 for patient information). All women admitted to the study were with singleton pregnancy and received weekly intramuscular injections of Makena 17-OHPC 250 mg beginning at 16 weeks until 36 weeks of gestation. Among the 48 study participants, 28 were considered responders to the treatment and delivered at term, whereas the remaining 20 were considered non-responders and had spontaneous preterm birth after the treatment. We acknowledged the possibility that those considered to be responders might include individuals who delivered at term owing to other reasons and not affected by the treatment. However, if we could observe genetic factors indeed differentiating the two groups, especially those involved in progesterone signaling, the observation then should be explained by progestin treatment.
We performed longitudinal recruitment of 48 women in Alabama who had previous history of spontaneous preterm labor. All women admitted to the study were with singleton pregnancy and received weekly intramuscular injections of Makena OHP 250 mg beginning at 16 weeks until 36 weeks of gestation. This study was approved by Stanford Institutional Review Board (IRB #21956). […]

Compound	effect on HUtSMC contraction, contractile state stimulated by oxytocin [1]	effect on myometrial cell contractility in either quiescent or contractile state [1]	reduction of oxytocin-induced myometrial contractility [1] [%]	further results
Brc1c(Br)c(Br)c2[nH]nnc2c1Br [4,5,6,7-tetrabromobenzotriazole]	attenuated myometrial contraction	altered myometrial contractility	15.73	effect on HUtSMC contraction, contractile state stimulated by oxytocin ([1]; listed as TBBt): attenuated oxytocin-induced myometrial contractility
IL-1B: cytokine used to mimic tissue-level inflammation at the labor onset				response of Group II genes to treatment [2]: overall not responsive
[H]/N=C(/N)SCCCn1cc(C2=C(c3cn(C)c4ccccc34)C(=O)NC2=O)c2ccccc21 [bisindolylmaleimide-ix]	attenuated myometrial contraction; also recorded: attenuated oxytocin-induced myometrial contractility	altered myometrial contractility	15.73	
COc1cccc(-c2cc(=O)c3ccccc3o2)c1N [PD-98059]		absence of signal		efficacy in a rat model of preterm labor (preterm labor): demonstrated efficacy
O=c1cc(N2CCOCC2)oc2c(-c3ccccc3)cccc12 [LY294002]			15.73	
O=C(NCc1cccc(O)c1)Nc1nc(-c2ccncc2)cs1 [RKI-1447]	attenuated myometrial contraction; also recorded: attenuated oxytocin-induced myometrial contractility	altered myometrial contractility		side effects on smooth muscle cells in other organs, particularly cardiotoxicity [3]: minimal effects; concentration at emergence of cellular toxicity (HUtSMCs; HUtSMCs): 50 µM; effect on cell viability (HUtSMCs; over a wide dose-range): little effect on cell viability; dose-response relationship on myometrial smooth muscle relaxation ([1]; 0 to 10 μM, quiescent (PBS) and contractile (OXY) states): dose-dependent effects on myometrial smooth muscle relaxation; effect on myometrial cell contractility in the presence and absence of oxytocin ([1]; both states): the only drug to prevent myometrial cell contractility in the presence and absence of oxytocin; effect on HUtSMC contraction, quiescent state [1]: strongly reduced the contraction; effect on uterine contractility in rats (uterine contractility): attenuated uterine contractility
N#CC(=C(/N)Sc1ccccc1N)/C(C#N)=C(\N)Sc1ccccc1N [U0126]		absence of signal		efficacy in a rat model of preterm labor (preterm labor): demonstrated efficacy
CC(=O)Oc1ccccc1C(=O)O [aspirin]				reduction of the risk of early preterm birth (before 34 gestational weeks) (preterm birth): 25%; reduction of the risk of preterm birth (before 37 gestational weeks) (preterm birth): 11%
C[S+]([O-])c1ccc(-c2nc(-c3ccncc3)c(-c3ccc(F)cc3)[nH]2)cc1 (centres unmarked) [SB-203580]	increased the contraction	altered myometrial contractility		effect on HUtSMC contraction, quiescent state [1]: significantly induced myometrial cell contraction
CN1CCN(Cc2ccc(-c3cnc4[nH]cc(-c5ccc6[nH]ccc6c5)c4c3)cc2)CC1 [URMC-099]	attenuated myometrial contraction; also recorded: attenuated oxytocin-induced myometrial contractility	altered myometrial contractility	15.73	
CCCCCC(=O)O[C@]1(C(C)=O)CC[C@H]2[C@@H]3CCC4=CC(=O)CC[C@]4(C)[C@H]3CC[C@@]21C [17-OHPC, 17-hydroxyprogesterone caproate]				non-responders (spontaneous preterm birth after the treatment) (recurrent preterm labor): 20; responders (delivered at term) (recurrent preterm labor): 28
